Reference: article PMC6544337, “Development of chimeric and bifunctional antagonists for CLR/RAMP receptors” (PLoS ONE, 2019)

How the values were obtained:
Assay type in all cases: cell-based
CLR/RAMP1 [1] = biological target: T1, CLR/RAMP1 (Homo sapiens, UniProt O60894+Q16602); assay: CLR/RAMP1 cAMP assay, agonist mode (DiscoveRx HitHunter cAMP XS+); settings: agonist mode; positive control CGRP; 1321N1 cells
Experimental: (§1) The bioactivity of synthetic analogs was studied using cells that stably express CLR/RAMP1 (1321N1 cells) or CLR/RAMP2 (CHO-K1 cells) receptors using CLR/RAMP1 cAMP and CLR/RAMP2 arrestin assays from DiscoveRx (Fremont, Ca). In receptor-activation assays, the dose-dependent stimulatory response was studied in duplicate, at 10 different concentrations.
For the analysis of signaling in CLR/RAMP1-expressing cells, cAMP Hunter cell lines were expanded from freezer stocks, and cells were seeded in white walled, 384-well microplates and incubated at 37C for the appropriate time. The activity was determined using the DiscoveRx HitHunter cAMP XS+ assay. Media was aspirated from cells and replaced with 15 μl 2:1 HBSS/10mM Hepes:cAMP XS+ Ab reagent. Intermediate dilution of sample stocks was performed to generate 4X sample in assay buffer, and 5 μl of 4X sample was added to cells and incubated at 37C or room temperature for the appropriate time. Vehicle concentration was 1%.
Microplates were read with a PerkinElmer instrument for chemiluminescent signal detection.

CLR/RAMP1 [2] = biological target: T1, CLR/RAMP1; assay: CLR/RAMP1 cAMP assay, antagonist mode (CGRP challenge at EC80); settings: for Emax: maximum inhibition of CGRP-mediated signaling, in % of a positive control, read-out: CLR/RAMP1 Max Activity % of control (antagonistic)
CLR/RAMP2 [3] = biological target: T2, CLR/RAMP2 (Homo sapiens, UniProt O60895+Q16602); assay: CLR/RAMP2 PathHunter β-arrestin assay, antagonist mode (ADM challenge at EC80); settings: for IC50: inhibition of ADM-mediated signaling, CHO-K1 cells, pre-incubation with antagonist, then agonist at EC80, β-arrestin read-out; for Emax: maximum inhibition of ADM-mediated signaling, in % of a positive control, read-out: CLR/RAMP2 Max Activity % of control (antagonistic)
T2 sequence (Q16602 23-461): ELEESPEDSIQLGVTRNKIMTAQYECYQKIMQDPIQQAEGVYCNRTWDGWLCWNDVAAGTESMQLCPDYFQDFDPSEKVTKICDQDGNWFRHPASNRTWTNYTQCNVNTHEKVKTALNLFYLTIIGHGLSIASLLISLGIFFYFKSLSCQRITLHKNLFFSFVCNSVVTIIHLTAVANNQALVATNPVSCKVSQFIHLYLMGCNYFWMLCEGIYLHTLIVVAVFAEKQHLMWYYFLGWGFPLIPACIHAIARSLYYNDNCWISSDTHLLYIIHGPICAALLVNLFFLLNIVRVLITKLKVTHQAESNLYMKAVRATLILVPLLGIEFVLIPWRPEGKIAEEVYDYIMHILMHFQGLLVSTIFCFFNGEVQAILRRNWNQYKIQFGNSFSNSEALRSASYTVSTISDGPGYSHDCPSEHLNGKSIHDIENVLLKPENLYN
T2 sequence (O60895 43-175): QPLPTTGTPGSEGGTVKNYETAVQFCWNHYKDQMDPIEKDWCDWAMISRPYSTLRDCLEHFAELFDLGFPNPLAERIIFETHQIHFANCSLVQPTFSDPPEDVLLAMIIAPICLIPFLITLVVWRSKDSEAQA
Experimental: as §1
(§2) The CLR/RAMP2 signaling was assayed using the CLR/RAMP2 PathHunter β-Arrestin assay. In this assay, the GPCR was fused in frame with a small enzyme donor fragment ProLink (PK) and co-expressed in cells stably expressing a fusion protein of β-arrestin and an N-terminal deletion mutant of β-galactosidase (i.e., enzyme acceptor or EA). Activation of the CLR/RAMP2 stimulates binding of β-arrestin to the PK-tagged receptor and leads to an increase in enzyme activity that can be measured using chemiluminescent PathHunter Detection Reagents. PathHunter cell lines were seeded in white walled, 384-well microplates and incubated at 37C prior to testing. For agonist determination, intermediate dilution of sample stocks was performed to generate 5X sample in assay buffer, and 5 μl of 5X sample was added to cells and incubated at 37C for 90 minutes. Vehicle concentration was 1%. For antagonistic activity determination, cells were pre-incubated with antagonist followed by agonist challenge at the EC80 concentration.

CLR/RAMP2 [4] = biological target: T2, CLR/RAMP2; assay: CLR/RAMP2 PathHunter β-arrestin assay, agonist mode; settings: agonist mode; positive control ADM; CHO-K1 cells
Experimental: as §1, §2

T1 sequence (Q16602 23-461): as the sequence (Q16602 23-461) above
T1 sequence (O60894 27-148): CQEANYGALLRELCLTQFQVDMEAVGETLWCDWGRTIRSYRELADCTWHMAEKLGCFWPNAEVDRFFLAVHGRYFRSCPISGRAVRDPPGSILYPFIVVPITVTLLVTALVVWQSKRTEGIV

Row | Compound | CLR/RAMP1 Max Activity % of control (CLR/RAMP1 [1]) | IC50 (CLR/RAMP1 [2]) [nM] | Emax (CLR/RAMP1 [2]) [%] | IC50 (CLR/RAMP2 [3]) [nM] | Emax (CLR/RAMP2 [3]) [%] | CLR/RAMP2 Max Activity % of control (CLR/RAMP2 [4])
1 | CSCC[C@H](NC(=O)CNC(=O)CNC(=O)[C@H](CO)NC(=O)[C@H](CCCNC(=N)N)NC(=O)[C@H](CO)NC(=O)[C@H](CC(C)C)NC(=O)[C@H](CC(C)C)NC(=O)CNC(=O)[C@H](C)NC(=O)[C@H](CC(C)C)NC(=O)[C@H](CCCNC(=N)N)NC(=O)[C@H](Cc1c[nH]cn1)NC(=O)[C@@H](NC(=O)[C@@H](NC(=O)[C@@H]1CSSC[C@H](NC(=O)[C@H](C)N)C(=O)N[C@@H](CC(N)=O)C(=O)N[C@@H]([C@@H](C)O)C(=O)N[C@@H](C)C(=O)N[C@@H]([C@@H](C)O)C(=O)N1)C(C)C)[C@@H](C)O)C(=O)N[C@H](C(=O)N[C@@H](CCCCN)C(=O)N[C@@H](CO)C(=O)N[C@@H](CC(N)=O)C(=O)N[C@@H](Cc1ccccc1)C(=O)N[C@H](C(=O)N1CCC[C@H]1C(=O)N[C@H](C(=O)N[C@@H](CC(N)=O)C(=O)N[C@H](C(=O)NCC(=O)N[C@@H](CO)C(=O)N[C@@H](CCCCN)C(=O)N[C@@H](C)C(=O)N[C@@H](Cc1ccccc1)C(N)=O)C(C)C)[C@@H](C)O)C(C)C)C(C)C [CGRP, calcitonin gene-related peptide] | 103 % of control |  |  |  |  | 
2 | CC[C@H](C)[C@H](NC(=O)[C@H](CCC(N)=O)NC(=O)[C@H](Cc1c[nH]cn1)NC(=O)[C@H](C)NC(=O)[C@H](CC(C)C)NC(=O)[C@H](CCCCN)NC(=O)[C@H](CCC(N)=O)NC(=O)[C@@H](NC(=O)[C@@H](N)[C@@H](C)O)C(C)C)C(=O)N[C@@H](Cc1ccc(O)cc1)C(=O)N[C@@H](CCC(N)=O)C(=O)N[C@@H](Cc1ccccc1)C(=O)N[C@H](C(=O)N[C@@H](CC(=O)O)C(=O)N[C@@H](CCCCN)C(=O)N[C@@H](CC(=O)O)C(=O)N[C@@H](CCCCN)C(=O)N[C@@H](CC(=O)O)C(=O)N[C@@H](CC(N)=O)C(=O)N[C@H](C(=O)N[C@@H](C)C(=O)N1CCC[C@H]1C(=O)N[C@@H](CCCNC(=N)N)C(=O)N[C@@H](CO)C(=O)N[C@@H](CCCCN)C(=O)N[C@H](C(=O)N[C@@H](CO)C(=O)N1CCC[C@H]1C(=O)N[C@@H](CCC(N)=O)C(=O)NCC(=O)N[C@@H](Cc1ccc(O)cc1)C(N)=O)[C@@H](C)CC)C(C)C)[C@@H](C)O [ADM22-52, reference compound] |  | 6600 | 57 | 256 | 105 | 
3 | CC[C@H](C)[C@H](NC(=O)[C@H](CCC(N)=O)NC(=O)[C@H](Cc1c[nH]cn1)NC(=O)[C@H](C)NC(=O)[C@H](CC(C)C)NC(=O)[C@H](CCCCN)NC(=O)[C@H](CCC(N)=O)NC(=O)[C@@H](NC(=O)[C@@H](N)[C@@H](C)O)C(C)C)C(=O)N[C@@H](Cc1ccc(O)cc1)C(=O)N[C@@H](CCC(N)=O)C(=O)N[C@@H](Cc1ccccc1)C(=O)N[C@H](C(=O)N[C@@H](CC(=O)O)C(=O)N[C@@H](CCCCN)C(=O)N[C@@H](CC(=O)O)C(=O)N[C@@H](CCCCN)C(=O)N[C@@H](CC(=O)O)C(=O)N[C@@H](CC(N)=O)C(=O)N[C@@H](CO)C(=O)N[C@@H](C)C(=O)N1CCC[C@H]1C(=O)N[C@H](C(=O)N[C@@H](CC(=O)O)C(=O)N1CCC[C@H]1C(=O)N[C@@H](CO)C(=O)N[C@@H](CO)C(=O)N1CCC[C@H]1C(=O)N[C@@H](Cc1c[nH]cn1)C(=O)N[C@@H](CO)C(=O)N[C@@H](Cc1ccc(O)cc1)C(N)=O)C(C)C)[C@@H](C)O [Antagonist 1–4] |  | 1120 | 106 | 289 | 101 | 
4 | CCCCCCCCCCCCCCCC(=O)N[C@H](C(=O)N[C@H](C(=O)N[C@@H](CCC(N)=O)C(=O)N[C@@H](CCCCN)C(=O)N[C@@H](CC(C)C)C(=O)N[C@@H](C)C(=O)N[C@@H](Cc1c[nH]cn1)C(=O)N[C@@H](CCC(N)=O)C(=O)N[C@H](C(=O)N[C@@H](Cc1ccc(O)cc1)C(=O)N[C@@H](CCC(N)=O)C(=O)N[C@@H](Cc1ccccc1)C(=O)N[C@H](C(=O)N[C@@H](CC(=O)O)C(=O)N[C@@H](CCCCN)C(=O)N[C@@H](CC(=O)O)C(=O)N[C@@H](CCCCN)C(=O)N[C@@H](CC(=O)O)C(=O)N[C@@H](CC(N)=O)C(=O)N[C@@H](CO)C(=O)N[C@@H](C)C(=O)N1CCC[C@H]1C(=O)N[C@H](C(=O)N[C@@H](CC(=O)O)C(=O)N1CCC[C@H]1C(=O)N[C@@H](CO)C(=O)N[C@@H](CO)C(=O)N1CCC[C@H]1C(=O)N[C@@H](Cc1c[nH]cn1)C(=O)N[C@@H](CO)C(=O)N[C@@H](Cc1ccc(O)cc1)C(N)=O)C(C)C)[C@@H](C)O)[C@@H](C)CC)C(C)C)[C@@H](C)O [Antagonist 1–1] |  |  |  |  | 100 | 
5 | NCCCC[C@H](NC(=O)[C@@H](Cc1cc(Br)c(O)c(Br)c1)NC(=O)N1CCC(N2Cc3ccccc3NC2=O)CC1)C(=O)N1CCN(c2ccncc2)CC1 [BIBN4096, reference compound] |  |  |  |  | 0 | 
6 | CC[C@H](C)[C@H](NC(=O)[C@H](CCCCN)NC(=O)[C@H](CO)NC(=O)[C@H](CCCNC(=N)N)NC(=O)[C@@H]1CCCN1C(=O)[C@H](C)NC(=O)[C@@H](NC(=O)[C@H](CC(N)=O)NC(=O)[C@H](CC(=O)O)NC(=O)[C@H](CCCCN)NC(=O)[C@H](CC(=O)O)NC(=O)[C@H](CCCCN)NC(=O)[C@H](CC(=O)O)NC(=O)[C@@H](NC(=O)[C@H](Cc1ccccc1)NC(=O)[C@H](CCCNC(=N)N)NC(=O)[C@H](CO)NC(=O)[C@H](CC(C)C)NC(=O)[C@H](CC(C)C)NC(=O)CNC(=O)[C@H](C)NC(=O)[C@H](CC(C)C)NC(=O)[C@H](CCCNC(=N)N)NC(=O)[C@H](Cc1c[nH]cn1)NC(=O)[C@@H](NC(=O)[C@@H](N)C(C)C)[C@@H](C)O)[C@@H](C)O)C(C)C)C(=O)N[C@@H](CO)C(=O)N1CCC[C@H]1C(=O)N[C@@H](CCC(N)=O)C(=O)NCC(=O)N[C@@H](Cc1ccc(O)cc1)C(N)=O [Antagonist 1–5] |  | 1880 | 99 | 117 | 100 | 
7 | CCCCCCCCCCCCCCCC(=O)NCC(=O)N[C@H]1CSSC[C@@H](C(=O)N[C@H](C(=O)N[C@H](C(=O)N[C@@H](CCC(N)=O)C(=O)N[C@@H](CCCCN)C(=O)N[C@@H](CC(C)C)C(=O)N[C@@H](C)C(=O)N[C@@H](Cc2c[nH]cn2)C(=O)N[C@@H](CCC(N)=O)C(=O)N[C@H](C(=O)N[C@@H](Cc2ccc(O)cc2)C(=O)N[C@@H](CCC(N)=O)C(=O)N[C@@H](Cc2ccccc2)C(=O)N[C@H](C(=O)N[C@@H](CC(=O)O)C(=O)N[C@@H](CCCCN)C(=O)N[C@@H](CC(=O)O)C(=O)N[C@@H](CCCCN)C(=O)N[C@@H](CC(=O)O)C(=O)N[C@@H](CC(N)=O)C(=O)N[C@H](C(=O)N[C@@H](C)C(=O)N2CCC[C@H]2C(=O)N[C@@H](CCCNC(=N)N)C(=O)N[C@@H](CO)C(=O)N[C@@H](CCCCN)C(=O)N[C@H](C(=O)N[C@@H](CO)C(=O)N2CCC[C@H]2C(=O)N[C@@H](CCC(N)=O)C(=O)NCC(=O)N[C@@H](Cc2ccc(O)cc2)C(N)=O)[C@@H](C)CC)C(C)C)[C@@H](C)O)[C@@H](C)CC)C(C)C)[C@@H](C)O)NC(=O)[C@H]([C@@H](C)O)NC(=O)CNC(=O)[C@H](Cc2ccccc2)NC(=O)[C@H](CCCNC(=N)N)NC1=O [Agonist 3] |  |  |  |  |  | 78 % of control
8 | CC[C@H](C)[C@H](NC(=O)[C@H](CCCCN)NC(=O)[C@H](CO)NC(=O)[C@H](CCCNC(=N)N)NC(=O)[C@@H]1CCCN1C(=O)[C@H](C)NC(=O)[C@@H](NC(=O)[C@H](CC(N)=O)NC(=O)[C@H](CC(=O)O)NC(=O)[C@H](CCCCN)NC(=O)[C@H](CC(=O)O)NC(=O)[C@@H]1CCCN1C(=O)CNC(=O)[C@H](CCSC)NC(=O)[C@H](CC(C)C)NC(=O)[C@H](CCC(N)=O)NC(=O)[C@H](Cc1c[nH]c2ccccc12)NC(=O)[C@H](CC(C)C)NC(=O)[C@H](CCCNC(=N)N)NC(=O)[C@H](Cc1c[nH]cn1)NC(=O)[C@H](C)NC(=O)[C@H](CC(C)C)NC(=O)[C@H](CCCCN)NC(=O)[C@H](CCC(N)=O)NC(=O)[C@@H](NC(=O)[C@@H](N)[C@@H](C)O)C(C)C)C(C)C)C(=O)N[C@@H](CO)C(=O)N1CCC[C@H]1C(=O)N[C@@H](CCC(N)=O)C(=O)NCC(=O)N[C@@H](Cc1ccc(O)cc1)C(N)=O [Antagonist 1–6] |  | 152 | 101 | 7.3 | 101 | 
